Measured values reported in patent publication US20130045991A1, “NEUROPROTECTIVE MODULATION OF NMDA RECEPTOR SUBTYPE ACTIVITIES” (THE UNIVERSITY OF BRITISH COLUMBIA, priority 2005, published 2013).

How the values were obtained:
[1] = molecular target: T1, extrasynaptic NMDA receptors (Rattus norvegicus, UniProt Q00959); test: NMDA-induced currents mediated by extrasynaptic NMDA receptors; assay type: cell-based; conditions: in presence of Ro 25-6981; NVP-AAM077 0.4 μM
T1 construct: both NR2A- and NR2B-containing receptor subtypes are expressed in these neurons; endogenous in cells; host or cells: primary cortical neurons from E18 Sprague-Dawley rat embryos, 11-14 DIV
T1 sequence (Q00959 23-1464, other chains not shown): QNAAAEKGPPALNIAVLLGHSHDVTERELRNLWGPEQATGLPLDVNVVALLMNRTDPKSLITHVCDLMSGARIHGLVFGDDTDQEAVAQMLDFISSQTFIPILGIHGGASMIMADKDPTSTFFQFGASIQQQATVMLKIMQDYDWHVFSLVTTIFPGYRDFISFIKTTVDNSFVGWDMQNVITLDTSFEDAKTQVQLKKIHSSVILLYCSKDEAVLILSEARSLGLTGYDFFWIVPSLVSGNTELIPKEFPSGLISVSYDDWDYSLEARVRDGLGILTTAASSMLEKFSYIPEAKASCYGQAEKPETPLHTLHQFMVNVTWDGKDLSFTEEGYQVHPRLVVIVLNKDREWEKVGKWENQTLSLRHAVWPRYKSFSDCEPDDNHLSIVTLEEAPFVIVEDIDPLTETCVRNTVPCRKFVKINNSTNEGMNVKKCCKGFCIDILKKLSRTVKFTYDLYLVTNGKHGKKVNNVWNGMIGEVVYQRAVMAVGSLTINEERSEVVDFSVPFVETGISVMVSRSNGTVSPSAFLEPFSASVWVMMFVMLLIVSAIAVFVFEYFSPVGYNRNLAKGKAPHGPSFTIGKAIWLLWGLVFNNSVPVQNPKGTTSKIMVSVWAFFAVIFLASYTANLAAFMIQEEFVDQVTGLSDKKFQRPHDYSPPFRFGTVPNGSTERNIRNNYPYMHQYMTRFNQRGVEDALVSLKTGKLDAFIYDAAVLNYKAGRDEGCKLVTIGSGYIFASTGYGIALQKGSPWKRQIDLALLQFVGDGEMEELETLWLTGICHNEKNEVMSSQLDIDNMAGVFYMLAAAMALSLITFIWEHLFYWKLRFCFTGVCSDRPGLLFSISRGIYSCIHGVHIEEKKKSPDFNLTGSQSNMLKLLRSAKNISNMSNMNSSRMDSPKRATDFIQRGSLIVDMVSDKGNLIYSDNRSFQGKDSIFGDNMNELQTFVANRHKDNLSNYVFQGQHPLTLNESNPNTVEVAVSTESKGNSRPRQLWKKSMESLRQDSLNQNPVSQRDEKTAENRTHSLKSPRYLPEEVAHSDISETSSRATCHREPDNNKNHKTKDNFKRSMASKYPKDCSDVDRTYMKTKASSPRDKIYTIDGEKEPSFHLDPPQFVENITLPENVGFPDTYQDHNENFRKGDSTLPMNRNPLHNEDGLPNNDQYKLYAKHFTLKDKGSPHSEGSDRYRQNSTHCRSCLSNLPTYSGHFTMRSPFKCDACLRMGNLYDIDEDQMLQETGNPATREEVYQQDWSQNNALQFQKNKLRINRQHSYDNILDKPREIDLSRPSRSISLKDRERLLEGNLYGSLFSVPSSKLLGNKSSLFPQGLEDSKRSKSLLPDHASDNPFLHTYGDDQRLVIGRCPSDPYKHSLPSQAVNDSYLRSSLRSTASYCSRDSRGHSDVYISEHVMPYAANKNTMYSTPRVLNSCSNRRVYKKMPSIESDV
Method: (§1) In contrast to the predominant expression of NR2A-containing receptors at synapses, NR2B-containing receptors are thought to be the predominant NMDA receptor expressed at extrasynaptic sites in mature neurons (Massy et al., 2004; Tovar et al., 2002). […] The selective blockade of synaptic NMDA receptors was achieved by co-application of bicuculline (50 μM) and MK-801 (10 μM) for 10 min. Bicuculline enhances synaptic release of glutamate and thereby selectively activates synaptic NMDA receptors (Hardingham et al., 2002). MK-801, as an irreversible blocker of open NMDA receptor channels (Tovar et al., 2002; Huettner et al., 1988), can only block the bicuculline-activated synaptic NMDA receptors, and cannot block extrasynaptic channels that are not activated during bicuculline application. […] Little recovery was observed one hour following wash-out of the drugs. The currents gated through extrasynaptic NMDA receptors were then induced by application of NMDA (200 μM) via a fast perfusion system after washing out bicuculline and MK-801. […] On average, about 26.6±2.3% (n=5) of total currents gated by extrasynaptic NMDA receptors were mediated by NR2A-containing receptors (FIG. 4Ad).
(§2) Recording of NMDA-induced currents mediated by extrasynaptic NMDA Receptors: Extrasynaptic NMDA receptors were isolated by a specific blockade of synaptic NMDA receptors with NMDA receptor open channel blocker MK-801 as described above. The coverslip with the treated cortical neurons was transferred to a recording chamber for whole-cell patch-clamp recording. Extrasynaptic NMDA receptors in voltage-clamped cortical neurons were activated by NMDA (200 μM) in Mg2+-free ECS using a fast perfusion system (Warner Instruments).

[2] = test system: extrasynaptic NMDA receptors; test: as above; assay type: cell-based, rat; conditions: NMDA 200 μM; n=5
Method: as §1, §2

[3] = test system: cortical neurons; test: Staurosporine (STS)-induced neuronal apoptosis; assay type: cell-based, rat; conditions: co-application of NVP-AAM077 0.4 μM
From the text: In alternative aspects of the invention, we have achieved specific activation of NR2A-containing receptors using two different strategies. First, we examined the effect of selective activation of extrasynaptic NR2A-containing receptor activation on neuronal appopotosis induced by staurosporine (STS), a potent apoptosis inducer (Budd et al., 2000). […] The NMDA-induced neuronal protection was indeed mediated by NR2A-containing receptors as it was prevented by co-application of NVP-AAM077 (p<0.001 compared with STS alone).
Dissociated cultures of cortical neurons were prepared from 18-day Sprague-Dawley rat embryos as described previously (Mielke et al., 2005). To obtain mixed cortical cultures enriched with neurons, uridine (10 μM) and 5-Fluor-2′-deoxyuridine (10 μM) were added to the culture medium at 3 DIV and maintained for 48 h, to inhibit non-neuronal cell proliferation, before the cultures were shifted back to the normal culture medium. Mature neurons (11-14 DIV) were used for experiments. To induce neuronal apoptosis, cortical cultures were stimulated with NMDA (50 μM) and glycine (10 μM) for 20 min, or STS (100 nM) for 1 h in Mg2+-free extracellular solution (ECS) containing (mM): 25 HEPES acid, 140 NaCl, 33 glucose, 5.4 KCl and 1.3 CaCl2, with pH 7.35 and osmolarity 320-330 mOsm. […]
To visualize injured neurons, Hoechst-33342 (10 μg/ml) was added to the culture medium 20 h after treatments and incubated for 45 min at 37 °C. Images were taken with a Leica DMIRE2 fluorescence microscope. Quantitative assessment of neuronal apoptosis was performed 20 h following treatments using a Cell Death Detection ELISAPLUS Kit (Roche Applied Science). Absorbance readings were determined using a spectrophotometric microplate reader. […] Data are expressed as the difference in apoptosis relative to control and are expressed as a percentage.

[4] = molecular target: T2, extrasynaptic NMDA receptors (Rattus norvegicus, UniProt Q00960); test: NMDA-induced currents mediated by extrasynaptic NMDA receptors; assay type: cell-based; conditions: NMDA 200 μM after MK-801/bicuculline block of synaptic receptors; Ro 25-6981 0.5 μM
T2 construct: both NR2A- and NR2B-containing receptor subtypes are expressed in these neurons; endogenous in cells; host or cells: primary cortical neurons from E18 Sprague-Dawley rat embryos, 11-14 DIV
T2 sequence (Q00960 27-1482, other chains not shown): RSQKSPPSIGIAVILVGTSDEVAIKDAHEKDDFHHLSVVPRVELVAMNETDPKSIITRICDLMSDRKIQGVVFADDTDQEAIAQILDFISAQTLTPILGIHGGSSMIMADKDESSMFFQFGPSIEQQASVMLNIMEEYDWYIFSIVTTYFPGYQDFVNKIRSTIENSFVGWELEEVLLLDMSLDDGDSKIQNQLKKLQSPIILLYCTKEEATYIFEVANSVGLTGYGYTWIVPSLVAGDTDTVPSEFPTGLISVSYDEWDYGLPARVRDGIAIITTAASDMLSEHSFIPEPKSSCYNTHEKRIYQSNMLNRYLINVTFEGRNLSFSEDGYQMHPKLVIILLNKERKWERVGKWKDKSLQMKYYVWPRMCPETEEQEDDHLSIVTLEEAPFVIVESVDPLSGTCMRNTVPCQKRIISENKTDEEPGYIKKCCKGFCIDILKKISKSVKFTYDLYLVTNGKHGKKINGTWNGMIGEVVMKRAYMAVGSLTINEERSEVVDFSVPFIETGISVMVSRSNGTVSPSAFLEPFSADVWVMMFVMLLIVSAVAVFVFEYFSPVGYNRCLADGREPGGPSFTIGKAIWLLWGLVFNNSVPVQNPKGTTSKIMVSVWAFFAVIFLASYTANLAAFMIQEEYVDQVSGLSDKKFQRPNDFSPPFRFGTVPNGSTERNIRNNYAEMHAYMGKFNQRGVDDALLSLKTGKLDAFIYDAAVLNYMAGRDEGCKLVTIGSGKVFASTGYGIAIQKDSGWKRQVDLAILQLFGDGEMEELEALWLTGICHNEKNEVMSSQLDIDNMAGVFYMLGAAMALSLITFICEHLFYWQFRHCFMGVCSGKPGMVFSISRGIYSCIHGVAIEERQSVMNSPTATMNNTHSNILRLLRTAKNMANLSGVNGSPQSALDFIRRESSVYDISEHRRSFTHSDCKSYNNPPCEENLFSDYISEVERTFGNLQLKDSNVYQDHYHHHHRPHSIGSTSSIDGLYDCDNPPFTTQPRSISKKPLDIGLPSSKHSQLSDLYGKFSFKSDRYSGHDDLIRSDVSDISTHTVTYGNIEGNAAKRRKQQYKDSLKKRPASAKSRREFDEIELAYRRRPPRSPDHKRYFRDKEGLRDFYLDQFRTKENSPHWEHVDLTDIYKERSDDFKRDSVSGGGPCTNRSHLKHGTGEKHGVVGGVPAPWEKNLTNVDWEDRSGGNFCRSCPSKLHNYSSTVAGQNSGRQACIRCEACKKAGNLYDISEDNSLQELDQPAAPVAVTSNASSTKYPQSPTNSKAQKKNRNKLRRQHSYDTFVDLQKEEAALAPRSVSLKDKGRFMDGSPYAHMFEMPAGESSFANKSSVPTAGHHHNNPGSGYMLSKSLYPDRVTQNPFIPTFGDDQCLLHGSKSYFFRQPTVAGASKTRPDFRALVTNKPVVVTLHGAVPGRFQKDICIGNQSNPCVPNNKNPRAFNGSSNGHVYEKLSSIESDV
Method: as §1, §2

Row | SMILES | effect on residual, NR2B antagonist-resistant extrasynaptic current [1] | share of total extrasynaptic NMDA receptor currents mediated by NR2A-containing receptors (Ro 25-6981-resistant, NVP-AAM077-blocked) [2] | effect on NMDA-induced protection against STS [3] | effect on extrasynaptic NMDA receptor-mediated currents [4]
1 | C[C@H](NC(c1cccc2[nH]c(=O)c(=O)[nH]c12)P(=O)(O)O)c1ccc(Br)cc1 (stereo partly shown) [NVP-AAM077] | virtually completely blocked | about 26.6±2.3% | prevented | –
2 | C[C@@H](CN1CCC(Cc2ccccc2)CC1)[C@@H](O)c1ccc(O)cc1 (relative stereo) [Ro 25-6981, [R-(R*,S*)]-α-(4-Hydroxyphenyl)-β-methyl-4-(phenylmethyl)-1-piperidinepropanol] | – | – | – | largely reduced
